For test [1], the target named is T1, umami taste receptor (T1R1 and T1R3 subunits, Gα15) (Homo sapiens, UniProt Q7RTX0+Q7RTX1, C757R).
T1 construct: expressed in transfected cells; host or cells: HEK293T (ATCC CRL-11268)
T1 sequence (Q7RTX1 21-841): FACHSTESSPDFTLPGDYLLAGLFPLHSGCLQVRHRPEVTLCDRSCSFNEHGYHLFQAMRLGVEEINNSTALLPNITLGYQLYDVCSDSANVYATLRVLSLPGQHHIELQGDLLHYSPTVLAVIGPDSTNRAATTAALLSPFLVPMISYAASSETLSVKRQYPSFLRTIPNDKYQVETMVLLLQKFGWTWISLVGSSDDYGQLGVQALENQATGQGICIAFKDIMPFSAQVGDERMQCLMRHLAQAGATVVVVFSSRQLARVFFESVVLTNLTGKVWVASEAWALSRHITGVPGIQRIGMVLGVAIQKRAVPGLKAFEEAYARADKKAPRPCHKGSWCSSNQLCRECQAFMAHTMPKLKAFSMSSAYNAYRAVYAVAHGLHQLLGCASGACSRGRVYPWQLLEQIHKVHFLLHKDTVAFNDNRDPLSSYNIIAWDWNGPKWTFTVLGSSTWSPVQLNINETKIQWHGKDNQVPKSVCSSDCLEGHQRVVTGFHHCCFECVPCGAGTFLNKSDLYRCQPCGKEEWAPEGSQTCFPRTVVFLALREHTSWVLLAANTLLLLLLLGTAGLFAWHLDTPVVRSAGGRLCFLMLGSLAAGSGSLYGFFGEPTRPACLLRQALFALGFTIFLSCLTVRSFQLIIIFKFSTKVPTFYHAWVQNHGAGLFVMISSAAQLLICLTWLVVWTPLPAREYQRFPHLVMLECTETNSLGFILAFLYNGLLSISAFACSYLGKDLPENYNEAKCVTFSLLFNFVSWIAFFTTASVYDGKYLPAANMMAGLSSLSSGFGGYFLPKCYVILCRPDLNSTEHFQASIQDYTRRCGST
T1 sequence (Q7RTX0 21-852 C757R): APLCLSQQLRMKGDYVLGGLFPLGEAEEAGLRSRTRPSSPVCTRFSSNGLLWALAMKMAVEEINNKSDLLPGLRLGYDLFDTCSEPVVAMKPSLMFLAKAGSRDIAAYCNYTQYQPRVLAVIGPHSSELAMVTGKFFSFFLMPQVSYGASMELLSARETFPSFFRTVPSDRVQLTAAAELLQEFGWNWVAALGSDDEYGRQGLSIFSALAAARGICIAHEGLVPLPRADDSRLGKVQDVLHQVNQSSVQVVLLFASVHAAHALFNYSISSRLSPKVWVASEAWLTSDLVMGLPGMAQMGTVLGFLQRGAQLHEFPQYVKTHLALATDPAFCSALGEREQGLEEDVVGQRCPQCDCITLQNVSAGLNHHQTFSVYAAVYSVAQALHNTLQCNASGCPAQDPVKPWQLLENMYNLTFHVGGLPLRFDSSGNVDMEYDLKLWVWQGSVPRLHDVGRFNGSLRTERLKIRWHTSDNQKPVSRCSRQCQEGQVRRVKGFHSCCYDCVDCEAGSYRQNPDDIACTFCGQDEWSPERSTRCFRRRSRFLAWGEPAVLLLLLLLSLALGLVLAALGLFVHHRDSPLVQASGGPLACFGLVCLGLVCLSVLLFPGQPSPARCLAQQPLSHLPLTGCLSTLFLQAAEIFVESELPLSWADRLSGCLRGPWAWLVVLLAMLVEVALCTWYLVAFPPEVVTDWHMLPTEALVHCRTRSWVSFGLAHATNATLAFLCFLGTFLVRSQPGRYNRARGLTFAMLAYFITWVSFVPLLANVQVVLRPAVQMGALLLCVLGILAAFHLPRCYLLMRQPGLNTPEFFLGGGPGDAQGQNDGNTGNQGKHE
Nature of the test: umami taste receptor-expressing cell-based assay. The conditions noted are these: FIGS. 9-12. The text has this:
To identify a taste receptor modulator (e.g., umami taste receptor modulator or sweet taste receptor modulator), one exposes a cell or cell line of the invention to a test compound under conditions in which the taste receptor (e.g., umami taste receptor or sweet taste receptor) would be expected to be functional and then detects a statistically significant change (e.g., p<0.05) in taste receptor activity (e.g., umami taste receptor activity or sweet taste receptor activity) compared to a suitable control, e.g., cells that are not exposed to the test compound. Positive and/or negative controls using known agonists or antagonists and/or cells expressing different combinations of taste receptor subunits (e.g., umami taste receptor subunits or sweet taste receptor subunits) (and optionally a G protein) may also be used. In some embodiments, the taste receptor activity (e.g., umami taste receptor activity or sweet taste receptor activity) to be detected and/or measured is calcium release from the endoplasmic reticulum as a result of the down stream signaling events following taste receptor activation (e.g., umami taste receptor activation or sweet taste receptor activation). One of ordinary skill in the art would understand that various assay parameters may be optimized, e.g., signal to noise ratio.

Test [2] deals with T2, sweet taste receptor (T1R2/T1R3) (Homo sapiens, UniProt Q7RTX0+Q8TE23, C757R/I191V/I486V/R317G).
T2 construct: expressed in transfected cells; host or cells: HEK293T (ATCC CRL-11268)
T2 sequence (Q8TE23 20-839 I191V/R317G/I486V): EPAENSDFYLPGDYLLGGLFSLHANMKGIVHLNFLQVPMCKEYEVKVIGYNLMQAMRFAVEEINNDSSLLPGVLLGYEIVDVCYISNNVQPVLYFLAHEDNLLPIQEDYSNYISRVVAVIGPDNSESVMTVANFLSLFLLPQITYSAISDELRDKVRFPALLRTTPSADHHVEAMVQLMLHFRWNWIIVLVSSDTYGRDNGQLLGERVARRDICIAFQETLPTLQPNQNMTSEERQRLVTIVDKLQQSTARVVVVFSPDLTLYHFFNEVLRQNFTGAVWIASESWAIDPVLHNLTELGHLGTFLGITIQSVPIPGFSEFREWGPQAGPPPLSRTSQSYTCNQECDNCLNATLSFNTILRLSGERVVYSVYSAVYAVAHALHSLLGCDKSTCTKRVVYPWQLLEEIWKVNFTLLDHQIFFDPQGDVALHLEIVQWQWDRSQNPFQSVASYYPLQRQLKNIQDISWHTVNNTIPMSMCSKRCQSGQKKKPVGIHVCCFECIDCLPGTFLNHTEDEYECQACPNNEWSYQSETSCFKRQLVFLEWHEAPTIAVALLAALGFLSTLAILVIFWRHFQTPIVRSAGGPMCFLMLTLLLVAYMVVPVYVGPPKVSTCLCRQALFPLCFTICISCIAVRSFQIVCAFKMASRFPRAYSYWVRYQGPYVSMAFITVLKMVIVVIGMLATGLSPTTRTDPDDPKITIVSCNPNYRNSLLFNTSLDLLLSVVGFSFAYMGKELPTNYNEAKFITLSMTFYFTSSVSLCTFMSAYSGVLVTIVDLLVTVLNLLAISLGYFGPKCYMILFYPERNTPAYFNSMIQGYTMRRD
T2 sequence (Q7RTX0 21-852 C757R): T1 sequence (Q7RTX0 21-852 C757R)
Nature of the test: Sweet cell-based calcium flux assay, HEK293T cells expressing T1R2, T1R3 and mouse Gα15. The settings on record: FIG. 20; high density, coated plates, low glucose media, serum deprivation. Background: A change in cytosolic calcium serves as a functional read-out for many receptors and channels.
Text: Plates are then loaded on a high throughput plate reader (Hamamatsu FDSS). […] Calcium flux is detected for 90 seconds.

The source of these data is patent US20170052170A1, “NOVEL CELL LINES AND METHODS” (priority 2009, published 2017).

As for `N[C@@H](CCC(=O)O)C(=O)[O-].[Na+]` [MSG, monosodium glutamate], the “response of umami taste receptor cells and cell lines to known classes of umami compounds” value in test [1] is “respond”. Besides, the “response of cells grown in the "Final" growth conditions” value in test [2] is “not”.
